{
  "source": "paper PMC5983644",
  "about": "“Expression and Interaction Analysis among Saffron ALDHs and Crocetin Dialdehyde” (International Journal of Molecular Sciences, 2018)",
  "biological_target": "T1, ALDH20158 (Crocus sativus, UniProt A0A3G1GZK3)",
  "T1 sequence (A0A3G1GZK3 31-535)": "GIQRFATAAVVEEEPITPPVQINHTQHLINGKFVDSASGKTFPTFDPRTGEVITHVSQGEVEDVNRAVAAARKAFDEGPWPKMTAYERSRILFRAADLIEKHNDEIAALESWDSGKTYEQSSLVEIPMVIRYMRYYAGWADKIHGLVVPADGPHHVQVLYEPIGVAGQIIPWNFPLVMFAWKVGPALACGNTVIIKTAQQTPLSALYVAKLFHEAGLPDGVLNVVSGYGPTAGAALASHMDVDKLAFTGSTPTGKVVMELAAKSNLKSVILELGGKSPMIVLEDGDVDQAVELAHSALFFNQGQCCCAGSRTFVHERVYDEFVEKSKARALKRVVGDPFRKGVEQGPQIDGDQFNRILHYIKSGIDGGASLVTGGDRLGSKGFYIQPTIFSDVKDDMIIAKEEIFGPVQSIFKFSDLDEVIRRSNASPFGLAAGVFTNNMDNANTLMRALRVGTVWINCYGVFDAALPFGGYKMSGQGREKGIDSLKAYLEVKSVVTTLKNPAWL",
  "test": "LC-APCI(+)-MS of crocetin formed by crude extract of E. coli expressing the enzyme",
  "assay_type": "biochemical",
  "conditions": "NAD+, pyrophosphate buffer, NaCl, pH 7.5, 28 C, 30 min; empty-vector extract as control",
  "data": [
    {"molecule": "C\\C(C=O)=C/C=C/C(C)=C/C=C/C=C(C)/C=C/C=C(\\C)C=O", "note": "[crocetin dialdehyde]", "values": [
      {"measurement": "LC-APCI(+)-MS of crocetin formed by crude extract of E. coli expressing the enzy", "result": "the same results were obtained using ALDH20158 and ALDH3898"}
    ]}
  ]
}
